PMC7822874, “Chemoprotective antimalarials identified through quantitative high-throughput screening of Plasmodium blood and liver stage parasites” (Scientific Reports, 2021)
Where two headings read alike, the source gives them in different places.

What was measured:
HepG2-A16-CD81EGFP cells = conditions: average of 2 wells; for HepG2 1uM growth rep1 / HepG2 1uM growth rep2: HepG2, 1 µM compound treatment (10 mM stocks); for HepG2 1uM growth rep1 / HepG2 3uM growth rep1: replicate 1, normalized; for HepG2 1uM growth rep2 / HepG2 3uM growth rep2: replicate 2, normalized; for HepG2 3uM growth rep1 / HepG2 3uM growth rep2: HepG2, 3 µM compound treatment (10 mM stocks)
[1] = tested on: P. berghei-ANKA-GFP-LucCON liver stage parasites in HepG2-A16-CD81EGFP cells; test: P. berghei liver stage Pb-Luc assay, Method 1 (UCSD, 1536-well); assay type: cell-based, Plasmodium berghei; conditions: Plasmodium berghei, 48 h
[2] = tested on: Plasmodium falciparum Dd2 asexual blood stage parasites; test: microbe, parasite or virus in culture; parameters: species or system Plasmodium falciparum Dd2 in human erythrocytes; single determination (one 11-point concentration-response curve); conditions: Plasmodium falciparum, DD2, Erythrocyte, 72 h; read-out: AC50
[3] = P. berghei liver stage, 1 µM compound treatment (10 mM stocks), replicate 1, normalized, average of 2 wells on a 1536 well plate, read-out: PbLuc 1uM growth rep1
[4] = P. berghei liver stage, 1 µM compound treatment (10 mM stocks), replicate 2, normalized, average of 2 wells on a 1536 well plate, read-out: PbLuc 1uM growth rep2
[5] = P. berghei liver stage, 3 µM compound treatment (10 mM stocks), replicate 1, normalized, average of 2 wells on a 1536 well plate, read-out: PbLuc 3uM growth rep1
[6] = P. berghei liver stage, 3 µM compound treatment (10 mM stocks), replicate 2, normalized, average of 2 wells on a 1536 well plate, read-out: PbLuc 3uM growth rep2

**Q.** Which “HepG2 1uM growth rep1” value (HepG2-A16-CD81EGFP cells) does the source give for `CCOC(=O)c1c(CN2CCN(c3ccccc3)CC2)oc2cc(Br)c(O)cc12` [MLS001198242-01] here?
**A.** 109%

**Q.** What about the “HepG2 1uM growth rep2” value (HepG2-A16-CD81EGFP cells) of the same compound?
**A.** 100%

**Q.** And the “HepG2 3uM growth rep1” value (HepG2-A16-CD81EGFP cells)?
**A.** 87%

**Q.** What about the “HepG2 3uM growth rep2” value (HepG2-A16-CD81EGFP cells) of the same compound?
**A.** 95%

**Q.** And the activity at 1 µM [1, 3]?
**A.** 136%

**Q.** What about the activity at 1 µM [1, 4] of the same compound?
**A.** 107%

**Q.** What about the activity at 3 µM [1, 5] of the same compound?
**A.** 96%

**Q.** And the activity at 3 µM [1, 6]?
**A.** 86%

**Q.** And the AC50 [2]?
**A.** 1880 nM

**Q.** For `COc1cc(C)cc(CN2CCC(Cc3ccccc3)CC2)c1O` [MLS001178265-01], which “HepG2 1uM growth rep1” value (HepG2-A16-CD81EGFP cells) is on record?
**A.** 101%

**Q.** And the “HepG2 1uM growth rep2” value (HepG2-A16-CD81EGFP cells)?
**A.** 92%

**Q.** What about the “HepG2 3uM growth rep1” value (HepG2-A16-CD81EGFP cells) of the same compound?
**A.** 87%

**Q.** And the “HepG2 3uM growth rep2” value (HepG2-A16-CD81EGFP cells)?
**A.** 88%

**Q.** And the activity at 1 µM [1, 3]?
**A.** 83%

**Q.** What about the activity at 1 µM [1, 4] of the same compound?
**A.** 95%

**Q.** And the activity at 3 µM [1, 5]?
**A.** 81%

**Q.** What about the activity at 3 µM [1, 6] of the same compound?
**A.** 123%

**Q.** What about the AC50 [2] of the same compound?
**A.** 750 nM

**Q.** Which results are given for `O=C(CSc1nc(Nc2ccccc2)nc(N2CCOCC2)n1)Nc1cc(Cl)ccc1O` [MLS001035450-01]?
**A.** HepG2 1uM growth rep1 (HepG2-A16-CD81EGFP cells): 100%; HepG2 1uM growth rep2 (HepG2-A16-CD81EGFP cells): 92%; HepG2 3uM growth rep1 (HepG2-A16-CD81EGFP cells): 83%; HepG2 3uM growth rep2 (HepG2-A16-CD81EGFP cells): 88%; activity at 1 µM [1, 3]: 97%; activity at 1 µM [1, 4]: 93%; activity at 3 µM [1, 5]: 67%; activity at 3 µM [1, 6]: 102%; AC50 [2]: 2370 nM

**Q.** `Cc1cc(N2CCN(C3CCCC3)CC2)n2c(nc3ccccc32)c1C#N` [MLS000039270-01] was tested. Which “HepG2 1uM growth rep1” value (HepG2-A16-CD81EGFP cells) did it give?
**A.** 91%

**Q.** And the “HepG2 1uM growth rep2” value (HepG2-A16-CD81EGFP cells)?
**A.** 87%

**Q.** What about the “HepG2 3uM growth rep1” value (HepG2-A16-CD81EGFP cells) of the same compound?
**A.** 89%

**Q.** What about the “HepG2 3uM growth rep2” value (HepG2-A16-CD81EGFP cells) of the same compound?
**A.** 90%

**Q.** And the activity at 1 µM [1, 3]?
**A.** 103%

**Q.** And the activity at 1 µM [1, 4]?
**A.** 109%

**Q.** And the activity at 3 µM [1, 5]?
**A.** 75%

**Q.** What about the activity at 3 µM [1, 6] of the same compound?
**A.** 112%

**Q.** What about the AC50 [2] of the same compound?
**A.** 1060 nM

**Q.** For `COc1ccc2[nH]c(C)c(CCN(Cc3cccs3)C(S)=Nc3ccccc3)c2c1` [MLS000529828-01], which “HepG2 1uM growth rep1” value (HepG2-A16-CD81EGFP cells) is on record?
**A.** 91%

**Q.** And the “HepG2 1uM growth rep2” value (HepG2-A16-CD81EGFP cells)?
**A.** 90%

**Q.** What about the “HepG2 3uM growth rep1” value (HepG2-A16-CD81EGFP cells) of the same compound?
**A.** 85%

**Q.** And the “HepG2 3uM growth rep2” value (HepG2-A16-CD81EGFP cells)?
**A.** 88%

**Q.** What about the activity at 1 µM [1, 3] of the same compound?
**A.** 145%

**Q.** What about the activity at 1 µM [1, 4] of the same compound?
**A.** 108%

**Q.** What about the activity at 3 µM [1, 5] of the same compound?
**A.** 101%

**Q.** And the activity at 3 µM [1, 6]?
**A.** 128%

**Q.** And the AC50 [2]?
**A.** 2660 nM

**Q.** How did the “HepG2 1uM growth rep1” value (HepG2-A16-CD81EGFP cells) turn out when `CCCCN(C(=O)c1cccc(S(=O)(=O)N(C)c2ccc(C)cc2)c1)c1c(N)n(CCCC)c(=O)[nH]c1=O` [MLS001128188-01] was run?
**A.** 96%

**Q.** What about the “HepG2 1uM growth rep2” value (HepG2-A16-CD81EGFP cells) of the same compound?
**A.** 92%

**Q.** And the “HepG2 3uM growth rep1” value (HepG2-A16-CD81EGFP cells)?
**A.** 90%

**Q.** What about the “HepG2 3uM growth rep2” value (HepG2-A16-CD81EGFP cells) of the same compound?
**A.** 93%

**Q.** And the activity at 1 µM [1, 3]?
**A.** 100%

**Q.** What about the activity at 1 µM [1, 4] of the same compound?
**A.** 88%

**Q.** What about the activity at 3 µM [1, 5] of the same compound?
**A.** 85%

**Q.** And the activity at 3 µM [1, 6]?
**A.** 111%

**Q.** And the AC50 [2]?
**A.** 5310 nM

**Q.** What does the source list for `CCOc1ccccc1NC(=O)Cn1c(-c2ccc(Cl)cc2)noc1=O` [MLS000529487-01]?
**A.** HepG2 1uM growth rep1 (HepG2-A16-CD81EGFP cells): 101%; HepG2 1uM growth rep2 (HepG2-A16-CD81EGFP cells): 91%; HepG2 3uM growth rep1 (HepG2-A16-CD81EGFP cells): 84%; HepG2 3uM growth rep2 (HepG2-A16-CD81EGFP cells): 90%; activity at 1 µM [1, 3]: 100%; activity at 1 µM [1, 4]: 128%; activity at 3 µM [1, 5]: 102%; activity at 3 µM [1, 6]: 133%; AC50 [2]: 5960 nM

**Q.** What does the source list for `COc1ccc(C2Sc3ccccc3N=C3C2=C(O)c2ccccc23)c(OC)c1OC` (centres unmarked) [NCGC00108825-01]?
**A.** HepG2 viability signal, 1 uM, repeat 1 (HepG2-A16-CD81EGFP cells; nominal 1 uM (10 mM stock), […] for 15 mM, 1.2 uM for 12 mM, 2 uM for 20 mM stock, repeat 1): 40.50%; HepG2 viability signal, 1 uM, repeat 2 (HepG2-A16-CD81EGFP cells; nominal 1 uM (10 mM stock), […] for 15 mM, 1.2 uM for 12 mM, 2 uM for 20 mM stock, repeat 2): 77.27%; HepG2 viability signal, 3 uM, repeat 1 (HepG2-A16-CD81EGFP cells; nominal 3 uM (10 mM stock), 4.5 uM for 15 mM, 3.6 uM for 12 mM, 6 uM for 20 mM stock, repeat 1): 21.41%; HepG2 viability signal, 3 uM, repeat 2 (HepG2-A16-CD81EGFP cells; nominal 3 uM (10 mM stock), 4.5 uM for 15 mM, 3.6 uM for 12 mM, 6 uM for 20 mM stock, repeat 2): 66.08%; activity at 1 µM ([1]; nominal 1 uM (10 mM stock), […] for 15 mM, 1.2 uM for 12 mM, 2 uM for 20 mM stock, average of 2 wells, 1536-well plate, repeat 1, read-out: Pb-Luc signal, 1 uM, repeat 1): 80.6%; activity at 1 µM ([1]; nominal 1 uM (10 mM stock), […] for 15 mM, 1.2 uM for 12 mM, 2 uM for 20 mM stock, average of 2 wells, 1536-well plate, repeat 2, read-out: Pb-Luc signal, 1 uM, repeat 2): 95.6%; activity at 1 µM ([1]; nominal 1 uM (10 mM stock), […] for 15 mM, 1.2 uM for 12 mM, 2 uM for 20 mM stock, average of 2 wells, 1536-well plate, repeat 3, read-out: Pb-Luc signal, 1 uM, repeat 3): 53.5%; activity at 3 µM ([1]; nominal 3 uM (10 mM stock), 4.5 uM for 15 mM, 3.6 uM for 12 mM, 6 uM for 20 mM stock, average of 2 wells, 1536-well plate, repeat 1, read-out: Pb-Luc signal, 3 uM, repeat 1): 34.1%; activity at 3 µM ([1]; nominal 3 uM (10 mM stock), 4.5 uM for 15 mM, 3.6 uM for 12 mM, 6 uM for 20 mM stock, average of 2 wells, 1536-well plate, repeat 2, read-out: Pb-Luc signal, 3 uM, repeat 2): 70.7%; activity at 3 µM ([1]; nominal 3 uM (10 mM stock), 4.5 uM for 15 mM, 3.6 uM for 12 mM, 6 uM for 20 mM stock, average of 2 wells, 1536-well plate, repeat 3, read-out: Pb-Luc signal, 3 uM, repeat 3): 74.5%; AC50 [2]: 750 nM

**Q.** Which “HepG2 1uM growth rep1” value (HepG2-A16-CD81EGFP cells) does the source give for `Cc1ccc(-c2nn(-c3ccccc3)c3[nH]c(=O)c(CNCc4ccccc4)cc23)cc1` [MLS000067457-01] here?
**A.** 95%

**Q.** What about the “HepG2 1uM growth rep2” value (HepG2-A16-CD81EGFP cells) of the same compound?
**A.** 94%

**Q.** And the “HepG2 3uM growth rep1” value (HepG2-A16-CD81EGFP cells)?
**A.** 91%

**Q.** What about the “HepG2 3uM growth rep2” value (HepG2-A16-CD81EGFP cells) of the same compound?
**A.** 100%

**Q.** What about the activity at 1 µM [1, 3] of the same compound?
**A.** 76%

**Q.** What about the activity at 1 µM [1, 4] of the same compound?
**A.** 56%

**Q.** And the activity at 3 µM [1, 5]?
**A.** 38%

**Q.** And the activity at 3 µM [1, 6]?
**A.** 42%

**Q.** And the AC50 [2]?
**A.** 422 nM

**Q.** `COc1cc2ccccc2cc1C(=O)N1CCCC(C(F)(F)F)C1` (centres unmarked) [MLS002180647-01] was tested. Which “HepG2 1uM growth rep1” value (HepG2-A16-CD81EGFP cells) did it give?
**A.** 105%

**Q.** And the “HepG2 1uM growth rep2” value (HepG2-A16-CD81EGFP cells)?
**A.** 90%

**Q.** And the “HepG2 3uM growth rep1” value (HepG2-A16-CD81EGFP cells)?
**A.** 83%

**Q.** What about the “HepG2 3uM growth rep2” value (HepG2-A16-CD81EGFP cells) of the same compound?
**A.** 89%

**Q.** What about the activity at 1 µM [1, 3] of the same compound?
**A.** 90%

**Q.** And the activity at 1 µM [1, 4]?
**A.** 108%

**Q.** What about the activity at 3 µM [1, 5] of the same compound?
**A.** 85%

**Q.** What about the activity at 3 µM [1, 6] of the same compound?
**A.** 115%

**Q.** And the AC50 [2]?
**A.** 5310 nM
